In patent US9012441B2, “Therapeutic compounds” (Gilead Sciences, Inc., priority 2013, dated 2015) one finds inhibition and CC50 data, which are given here for ten molecules.

Some results are limits rather than exact numbers.

The test system of data set [1] is HIV-IIIb. As to the kind of experiment: Test A: Antiviral Assay in MT4 Cells. Type of data set: cell-based, HIV-1. The conditions noted are these: Human immunodeficiency virus 1, MT4, 120 h, read-out: % Inh @ 2 uM (percent inhibition of virus-induced cell killing); 2 uM test compound; MT-4 cells infected with HIV-IIIb, 5 days, CellTiter-Glo. The procedure: (§1) Test A: Antiviral Assay in MT4 Cells For the antiviral assay, 40 μL of 1× test concentration of 3-fold serially diluted compound in culture medium with 10% FBS was added to each well of a 384-well plate (10 concentrations) in quadruplicate. MT-4 cells were next mixed with HIV-IIIb at an m.o.i of 0.003 for 1 hour, after which time 35 μL of virus/cell mixture (2000 cells) was immediately added to each well containing 40 μL of diluted compound. The plates were then incubated at 37° C. for 5 days. After 5 days of incubation, 25 μl of 2× concentrated CellTiter-Glo™ Reagent (catalog #G7571, Promega Biosciences, Inc., Madison, Wis.) was added to each well containing MT-4 cells. Cell lysis was carried out by incubating at room temperature for 10 min and then chemiluminescence was read. […] Accordingly, the compounds disclosed herein may be useful for treating an HIV virus infection, treating AIDS or for delaying the onset of AIDS or ARC symptoms.

The nature of data set [2]: Test B: Cytotoxicity Assay (uninfected MT-4 cells). Type of data set: cell-based. The conditions noted are these: human, same protocol as Test A, read-out: MT4-CC50. The procedure: as §1, with “For” for “Test A: Antiviral Assay in MT4 Cells For”, “Test B: Cytotoxicity Assay Compound cytotoxicity and” for “Accordingly,”, “corresponding CC50 values were determined using” for “compounds disclosed herein may be useful for treating an HIV virus infection, treating AIDS or for delaying”, “same protocol as described in the antiviral assay (Test A) except that uninfected cells were used.” for “onset of AIDS or ARC symptoms.”

A word on the inhibition: it is the change of the read-out against control, counted positive when it falls. One may read the CC50 as the concentration giving 50% cytotoxicity. For the molecule `COc1ccc(N(C)C(=O)[C@@H]2Cc3cccc(c3)CS(=O)(=O)Cc3[nH]c4ccccc4c3CC(=O)N2)cc1` [Example 16, (10S)—N-(4-methoxyphenyl)-N-methyl-12-oxo-9,10,11,12,13,18-hexahydro-1H-8,4-(metheno)[1,7]thiazacyclopentadecino[3,4-b]indole-10(3H)-carboxamide 2,2-dioxide], the inhibition at 2 µM in data set [1] was 67.8%. The CC50 at 5 days in data set [2] was > 53 µM.
In the same order, the values of `CN(C(=O)[C@@H]1Cc2cccc(c2)CCc2[nH]c3ccc(=O)[nH]c3c2CC(=O)N1)c1ccc(Cl)cc1` [Example 29, (14S)—N-(4-chlorophenyl)-N-methyl-2,16-dioxo-1,2,5,6,7,13,14,15,16,17-decahydro-12,8-(metheno)pyrido[2′,3′:4,5]pyrrolo[3,2-d]azacyclotetradecine-14-carboxamide] are 87.6% and > 53 µM.
The matching figures for `COc1ccc(N(C)C(=O)[C@@H]2Cc3cccc(c3)CCS(=O)(=O)Cc3[nH]c4ccccc4c3CC(=O)N2)cc1` [Example 8, (11S)—N-(4-methoxyphenyl)-N-methyl-13-oxo-3,4,10,11,12,13,14,19-octahydro-1H-9,5-(metheno)[1,7]thiazacyclohexadecino[3,4-b]indole-11-carboxamide 2,2-dioxide]: 0.6% and > 53 µM.
In the same order, the values of `COc1ccc(N(C)C(=O)[C@@H]2Cc3cccc(c3)CCS(=O)(=O)Cc3[nH]c4ccc(O)cc4c3CC(=O)N2)cc1` [Example 9] are 0.7% and > 53 µM.
As to `COc1ccc(N(C)C(=O)[C@@H]2Cc3cc(F)cc(c3)/C=C\Cc3[nH]c4ccccc4c3CC(=O)N2)cc1` [Example 26, (4S,11Z)-8-fluoro-N-(4-methoxyphenyl)-N-methyl-2-oxo-2,3,4,5,13,14-hexahydro-1H-6,10-(metheno)azacyclopentadecino[5,4-b]indole-4-carboxamide], the inhibition at 2 µM in data set [1] turned out to be 79.9%. Besides, the CC50 at 5 days in data set [2] is 34.8 µM.
The matching figures for `COc1ccc(N(C)C(=O)[C@@H]2Cc3cccc(c3)CCCc3[nH]c4ccc(O)cc4c3CC(=O)N2)cc1` [Example 2]: 102% and > 46.4 µM.
In the same order, the values of `COc1ccc(N(C)C(=O)[C@@H]2Cc3cccc(c3)CS(=O)(=O)c3[nH]c4ccccc4c3CC(=O)N2)cc1` [Example 21, (9S)—N-(4-methoxyphenyl)-N-methyl-11-oxo-8,9,10,11,12,17-hexahydro-7,3-(metheno)[1,6]thiazacyclotetradecino[2,3-b]indole-9(2H)-carboxamide 1,1-dioxide] are 11.8% and > 53 µM.
For the molecule `COc1ccc(N(C)C(=O)[C@@H]2Cc3cccc(c3)S(=O)(=O)Cc3[nH]c4ccccc4c3CC(=O)N2)cc1` [Example 19, (9S)—N-(4-methoxyphenyl)-N-methyl-11-oxo-8,9,10,11,12,17-hexahydro-1H-7,3-(metheno)[1,7]thiazacyclotetradecino[3,4-b]indole-9-carboxamide 2,2-dioxide], in data set [1], the inhibition at 2 µM was found to be 80.3%. For the same molecule, the CC50 at 5 days in data set [2] is > 53 µM.
The matching figures for `CN(C(=O)[C@@H]1Cc2cc(F)cc(c2)CCCc2[nH]c3ccccc3c2CC(=O)N1)c1ccc(Cl)cc1` [Example 24, (4S)—N-(4-chlorophenyl)-8-fluoro-N-methyl-2-oxo-2,3,4,5,11,12,13,14-octahydro-1H-6,10-(metheno)azacyclopentadecino[5,4-b]indole-4-carboxamide]: 100% and 47.1 µM.
As to `COc1ccc(N(C)C(=O)[C@@H]2Cc3cccc(c3)CCSCc3[nH]c4ccc(F)cc4c3CC(=O)N2)cc1` [Example 7], the inhibition at 2 µM in data set [1] stood at 26.3%. In data set [2], the CC50 at 5 days was > 53 µM.
